Assays:
MMP-2 = molecular target: T1, MMP-2 (Homo sapiens, UniProt P08253); experiment: K(obs) of individual phage substrates (set of 1369); type: biochemical; details: MMP2
T1 sequence (P08253 110-660): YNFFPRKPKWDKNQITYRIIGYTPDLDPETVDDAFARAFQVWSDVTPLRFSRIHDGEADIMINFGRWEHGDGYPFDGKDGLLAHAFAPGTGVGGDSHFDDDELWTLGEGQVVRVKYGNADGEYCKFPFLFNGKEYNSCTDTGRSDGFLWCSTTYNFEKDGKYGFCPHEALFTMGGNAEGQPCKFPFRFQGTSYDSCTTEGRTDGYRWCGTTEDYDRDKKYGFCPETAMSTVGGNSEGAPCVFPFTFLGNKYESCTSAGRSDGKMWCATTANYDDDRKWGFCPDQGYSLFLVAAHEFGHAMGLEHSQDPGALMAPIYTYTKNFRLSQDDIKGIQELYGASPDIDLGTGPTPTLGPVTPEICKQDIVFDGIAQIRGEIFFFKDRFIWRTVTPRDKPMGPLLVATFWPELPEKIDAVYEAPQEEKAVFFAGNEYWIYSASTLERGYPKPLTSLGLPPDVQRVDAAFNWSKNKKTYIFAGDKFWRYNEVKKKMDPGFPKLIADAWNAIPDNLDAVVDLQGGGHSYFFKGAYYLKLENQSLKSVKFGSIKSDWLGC

MMP-9 = MMP-9 (Homo sapiens, UniProt P14780); experiment: as above; type: biochemical; details: MMP9, individual phage substrates, set of 1369 peptides
[1] = individual phage substrates, set of 1369 peptides, cleavage position marked by '-' in the sequence
[2] = '-' marks the cleavage position (P1-P1')
[3] = individual phage substrate from the set of 1369 peptides, cleavage position marked by the dash in the sequence
[4] = dash in sequence marks cleavage position

Sequence of MMP-9 (P14780 94-707): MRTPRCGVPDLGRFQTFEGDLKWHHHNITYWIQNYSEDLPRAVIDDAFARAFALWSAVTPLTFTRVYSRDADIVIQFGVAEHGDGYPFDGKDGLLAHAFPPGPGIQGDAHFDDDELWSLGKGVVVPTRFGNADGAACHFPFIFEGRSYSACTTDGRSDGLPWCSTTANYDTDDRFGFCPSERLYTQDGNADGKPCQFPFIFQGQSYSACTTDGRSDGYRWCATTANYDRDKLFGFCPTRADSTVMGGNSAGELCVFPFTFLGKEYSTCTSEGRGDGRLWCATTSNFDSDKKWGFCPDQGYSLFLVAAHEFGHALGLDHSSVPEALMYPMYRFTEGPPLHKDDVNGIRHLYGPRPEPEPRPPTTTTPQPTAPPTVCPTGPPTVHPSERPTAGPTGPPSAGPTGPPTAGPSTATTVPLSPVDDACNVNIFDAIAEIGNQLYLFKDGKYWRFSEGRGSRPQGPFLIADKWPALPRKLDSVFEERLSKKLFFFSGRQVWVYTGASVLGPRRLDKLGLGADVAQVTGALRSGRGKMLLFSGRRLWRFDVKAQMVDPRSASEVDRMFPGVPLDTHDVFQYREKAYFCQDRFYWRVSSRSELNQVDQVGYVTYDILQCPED

Row | Substance | Kobs (MMP-2; [1]) [M⁻¹ s⁻¹] | Kobs (MMP-9; [2]) [M⁻¹ s⁻¹] | Kobs (MMP-2; [3]) [M⁻¹ s⁻¹] | Kobs (MMP-9; [4]) [M⁻¹ s⁻¹]
1 | HRPFG-LTASG | 12792.1 | 12792.1 | – | –
2 | HVLQN-LTASG | 12792.1 | 201.585 | – | –
3 | HWPRF-LTASG | – | – | 10866.7 | 10866.7
4 | HYPSS-LTASG | 12792.1 | 12792.1 | – | –
5 | IEYLN-YTASG | 231.616 | 355.093 | – | –
6 | IFINF-LTASG | 10866.7 | 323.705 | – | –
7 | IGYAW-MTASG | 5090.5 | 201.585 | – | –
8 | IMMAY-LTASG | 12792.1 | 113.394 | – | –
9 | IQLAW-LTASG | 12792.1 | 5090.5 | – | –
10 | ISPAT-LTASG | 12792.1 | 12792.1 | – | –
11 | ISPML-LTASG | 1196.62 | 12792.1 | – | –
12 | IVNAR-LTASG | 2038.8 | 56.119 | – | –
13 | KAALP-LTASG | 2916.17 | 3964.21 | – | –
14 | KAPLK-LTASG | – | – | 12792.1 | 12792.1
15 | KMPRW-ITASG | – | – | 6131.32 | 9740.44
16 | KPVSA-LTASG | – | – | 12792.1 | 551.253
17 | KRAAS-LTASG | 12792.1 | 1283.43 | – | –
18 | KSPAY-LTASG | – | – | 10866.7 | 10866.7
19 | KSPRM-LTASG | – | – | 12792.1 | 12792.1
20 | KVLAS-LTASG | – | – | 10866.7 | 0
21 | KWPER-LTASG | – | – | 2038.8 | 1925.41
22 | LGWSS-LTASG | – | – | 3344.37 | 0
23 | LPALN-MTASG | 1513.13 | 4335.13 | – | –
24 | LPTRW-LTASG | 7815.03 | 4082.43 | – | –
25 | LQPLT-ITASG | 5090.5 | 12792.1 | – | –
26 | LVVAA-LTASG | 12792.1 | 12792.1 | – | –

Row | Substance | Kobs (MMP-2; [1]) [M⁻¹ s⁻¹] | Kobs (MMP-9; [2]) [M⁻¹ s⁻¹] | Kobs (MMP-2; [3]) [M⁻¹ s⁻¹] | Kobs (MMP-9; [4]) [M⁻¹ s⁻¹]
27 | MAYQS-LTASG | 8941.32 | 726.013 | – | –
28 | MDLLS-LTASG | – | – | 1327.88 | 0
29 | MFHLN-ITASG | 1373.05 | 690.17 | – | –
30 | MKPVN-LTASG | 12792.1 | 12792.1 | – | –
31 | MVPHM-LTASG | 12792.1 | 12792.1 | – | –
32 | MVPSA-LTASG | 7015.91 | 8941.32 | – | –
33 | MVVRH-LTASG | – | – | 12792.1 | 12792.1
34 | NDLAH-ITASG | – | – | 10866.7 | 0
35 | NFGRP-LTASG | 912.511 | 726.013 | – | –
36 | NFPMS-LTASG | 12792.1 | 12792.1 | – | –
37 | NKTAW-LTASG | 7386.83 | 799.117 | – | –
38 | NRIGN-FTASG | 7815.03 | 0 | – | –
39 | NRPSA-LTASG | 12792.1 | 12792.1 | – | –
40 | NSHMA-LTASG | – | – | 517.582 | 619.843
41 | NSPQL-LTASG | – | – | 6396.07 | 2097.28
42 | NTFLH-LTASG | – | – | 0 | 0
43 | PDVFA-LTASG | 3637.04 | 6688.74 | – | –
44 | PGIAN-LTASG | 7815.03 | 2218.08 | – | –
45 | PGVRF-LTASG | 8941.32 | 7815.03 | – | –
46 | PMARY-LTASG | 12792.1 | 3637.04 | – | –
47 | PSPRA-ITASG | 12792.1 | 12792.1 | – | –
48 | PSPRY-LTASG | – | – | 12792.1 | 10866.7
49 | PTLWR-ITASG | – | – | 386.839 | 0
50 | PVVWW-QTASG | 836.403 | 5461.43 | – | –
51 | PYAEN-LTASG | – | – | 3253.29 | 551.253
52 | QAAFH-LTASG | 3964.21 | 3253.29 | – | –

Row | Substance | Kobs (MMP-2; [1]) [M⁻¹ s⁻¹] | Kobs (MMP-9; [2]) [M⁻¹ s⁻¹] | Kobs (MMP-2; [3]) [M⁻¹ s⁻¹] | Kobs (MMP-9; [4]) [M⁻¹ s⁻¹]
53 | QHLAA-LTASG | 12792.1 | 484.315 | – | –
54 | QKYSN-LTASG | 5889.62 | 0 | – | –
55 | QRANS-ITASG | 551.253 | 0 | – | –
56 | QRMDL-LTASG | 0 | 0 | – | –
57 | QRVLP-LTASG | – | – | 6396.07 | 2038.8
58 | QSPVQ-LTASG | 12792.1 | 4205.91 | – | –
59 | QVPVF-LTASG | 12792.1 | 8321.48 | – | –
60 | RAGFQ-LTASG | – | – | 0 | 0
61 | RDLWK-LTASG | 0 | 56.119 | – | –
62 | RDVLW-LTASG | 3964.21 | 6688.74 | – | –
63 | RGMQN-LTASG | 1610.61 | 690.17 | – | –
64 | RGPVF-LTASG | – | – | 10866.7 | 10866.7
65 | RGVWK-LTASG | – | – | 0 | 1071.29
66 | RHLAK-LTASG | 9740.44 | 0 | – | –
67 | RHMLG-LTASG | – | – | 1154.21 | 726.013
68 | RKALN-LTASG | 4613.14 | 5667.28 | – | –
69 | RNLAS-LTASG | 7815.03 | 142.481 | – | –
70 | RNVNF-LTASG | – | – | 2409.72 | 484.315
71 | RPAQD-LTASG | 27.918 | 231.616 | – | –
72 | RRPAS-MTASG | 5090.5 | 7015.91 | – | –
73 | RRPLR-ITASG | – | – | 3165.09 | 12792.1
74 | RRTAW-LTASG | 8321.48 | 1373.05 | – | –
75 | RRVLA-LTASG | – | – | 12792.1 | 12792.1
76 | RSPLM-MTASG | 4922.1 | 12792.1 | – | –
77 | RTPLM-LTASG | 12792.1 | 12792.1 | – | –
78 | RTYSH-LTASG | 3079.62 | 0 | – | –

Row | Substance | Kobs (MMP-2; [1]) [M⁻¹ s⁻¹] | Kobs (MMP-9; [2]) [M⁻¹ s⁻¹] | Kobs (MMP-2; [3]) [M⁻¹ s⁻¹] | Kobs (MMP-9; [4]) [M⁻¹ s⁻¹]
79 | RVIRH-LTASG | 12792.1 | 7815.03 | – | –
80 | RVLSR-LTASG | 8941.32 | 0 | – | –
81 | RVPKL-LTASG | – | – | 1870.4 | 4922.1
82 | RVPRG-LTASG | 12792.1 | 12792.1 | – | –
83 | RWPAW-LTASG | – | – | 9740.44 | 8941.32
84 | RYPVN-MTASG | 6688.74 | 5090.5 | – | –
85 | RYPWA-LTASG | 8941.32 | 12792.1 | – | –
86 | SAVRA-LTASG | 9740.44 | 7815.03 | – | –
87 | SDIRW-LTASG | 7386.83 | 4335.13 | – | –
88 | SGAFH-ILGTA | 1030.73 | 5667.28 | – | –
89 | SGAFS-LMRTA | 323.705 | 451.441 | – | –
90 | SGAGR-LRATA | – | – | 142.481 | 517.582
91 | SGALA-LLDTA | 0 | 619.843 | – | –
92 | SGALD-LKRTA | – | – | 0 | 0
93 | SGALG-LLETA | 171.876 | 171.876 | – | –
94 | SGALH-LRETA | 201.585 | 201.585 | – | –
95 | SGAMN-LTLTA | 0 | 0 | – | –
96 | SGANS-LVATA | 1327.88 | 27.918 | – | –
97 | SGANY-IRATA | – | – | 1465.65 | 418.952
98 | SGAQA-LTLTA | 171.876 | 113.394 | – | –
99 | SGARG-IKLTA | – | – | 0 | 0
100 | SGARN-LMATA | 10866.7 | 12792.1 | – | –
101 | SGAVA-LRLTA | 1981.53 | 3438.54 | – | –
102 | SGAWN-MRVTA | 292.668 | 3079.62 | – | –

From publication PMC7932537, “Quantitative profiling of protease specificity” (PLoS Computational Biology, 2021)
